Experimental data: ChEMBL document CHEMBL1165847, “Urotensin-II receptor modulators as potential drugs” (J Med Chem, 2010)
Where a SMILES comes first, the peptide text is derived from it. Bridges are numbered along the chain shown (N, C = ends).

biological target: T1, Urotensin-2 receptor (Rattus norvegicus, UniProt P49684); assay: Agonist activity at rat urotensin 2 receptor expressed in CHO cells assessed as calcium mobilization by FLIPR; assay type: functional, cell-based
T1 sequence (P49684 whole entry): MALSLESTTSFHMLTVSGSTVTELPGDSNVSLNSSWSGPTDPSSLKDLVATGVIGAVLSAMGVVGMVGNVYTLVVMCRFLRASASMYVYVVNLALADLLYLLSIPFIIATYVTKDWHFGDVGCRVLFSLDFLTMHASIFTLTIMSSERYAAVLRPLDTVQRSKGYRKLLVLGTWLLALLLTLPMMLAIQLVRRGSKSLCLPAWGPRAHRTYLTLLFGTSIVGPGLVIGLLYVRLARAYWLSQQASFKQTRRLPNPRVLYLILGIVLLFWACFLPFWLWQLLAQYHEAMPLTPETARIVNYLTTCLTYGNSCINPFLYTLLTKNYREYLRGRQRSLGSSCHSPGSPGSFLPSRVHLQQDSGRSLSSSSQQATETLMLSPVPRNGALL

Row | Compound | EC50 [nM]
1 | CC(C)[C@H](NC(=O)[C@@H]1CSSC[C@H](NC(=O)[C@@H](N)CC(=O)O)C(=O)N[C@@H](Cc2ccccc2)C(=O)N[C@@H](Cc2c[nH]c3ccccc23)C(=O)N[C@@H](CCCCN)C(=O)N[C@@H](Cc2ccc(O)cc2)C(=O)N1)C(=O)O (H-DCFWKYCV-OH; disulfide 2-7) | 0.1
2 | CC(C)[C@H](NC(=O)[C@@H]1CSSC[C@H](N)C(=O)N[C@@H](Cc2ccccc2)C(=O)N[C@@H](Cc2c[nH]c3ccccc23)C(=O)N[C@@H](CCCCN)C(=O)N[C@@H](Cc2ccc(O)cc2)C(=O)N1)C(=O)O (H-CFWKYCV-OH; disulfide 1-6) | 0.76
3 | CC(C)[C@H](NC(=O)[C@@H]1CSSC[C@H](NC(=O)[C@H](CC(=O)O)NC(=O)[C@H](C)N)C(=O)N[C@@H](Cc2ccccc2)C(=O)N[C@@H](Cc2c[nH]c3ccccc23)C(=O)N[C@@H](C)C(=O)N[C@@H](Cc2ccc(O)cc2)C(=O)N1)C(=O)O (H-ADCFWAYCV-OH; disulfide 3-8) | > 1000
4 | CC(C)[C@H](NC(=O)[C@@H]1CSSC[C@H](NC(=O)[C@H](CC(=O)O)NC(=O)[C@H](C)NC(=O)[C@@H](NC(=O)CN)[C@@H](C)O)C(=O)N[C@@H](Cc2ccccc2)C(=O)N[C@@H](Cc2c[nH]c3ccccc23)C(=O)N[C@@H](CCCCN)C(=O)N[C@@H](Cc2ccc(O)cc2)C(=O)N1)C(=O)O (H-GTADCFWKYCV-OH; disulfide 5-10) | 0.29
5 | CC(C)[C@H](NC(=O)[C@@H]1CSSC[C@H](NC(=O)[C@H](CC(=O)O)NC(=O)[C@H](C)N)C(=O)N[C@@H](Cc2ccccc2)C(=O)N[C@@H](C)C(=O)N[C@@H](CCCCN)C(=O)N[C@@H](Cc2ccc(O)cc2)C(=O)N1)C(=O)O (H-ADCFAKYCV-OH; disulfide 3-8) | > 1000

The remaining compounds from weak to strong by EC50, led by results:

Row | EC50 [nM] | Compound
6 | 6.5 | CC(C)[C@H](NC(=O)[C@@H]1CSSC[C@H](NC(=O)[C@H](CC(=O)O)NC(=O)[C@H](C)N)C(=O)N[C@@H](C)C(=O)N[C@@H](Cc2c[nH]c3ccccc23)C(=O)N[C@@H](CCCCN)C(=O)N[C@@H](Cc2ccc(O)cc2)C(=O)N1)C(=O)O (H-ADCAWKYCV-OH; disulfide 3-8)
7 | 1.6 | NCCCC[C@@H]1NC(=O)[C@H](Cc2c[nH]c3ccccc23)NC(=O)[C@H](Cc2ccccc2)NC(=O)[C@@H](N)CSSC[C@@H](C(=O)O)NC(=O)[C@H](Cc2ccc(O)cc2)NC1=O (H-CFWKYC-OH; disulfide 1-6)
8 | 0.6 | CC(C)[C@H](NC(=O)[C@@H]1CSSC[C@H](NC(=O)[C@H](C)NC(=O)[C@H](C)N)C(=O)N[C@@H](Cc2ccccc2)C(=O)N[C@@H](Cc2c[nH]c3ccccc23)C(=O)N[C@@H](CCCCN)C(=O)N[C@@H](Cc2ccc(O)cc2)C(=O)N1)C(=O)O (H-AACFWKYCV-OH; disulfide 3-8)
9 | 0.4 | C[C@H](N)C(=O)N[C@@H](CC(=O)O)C(=O)N[C@H]1CSSC[C@@H](C(=O)N[C@@H](C)C(=O)O)NC(=O)[C@H](Cc2ccc(O)cc2)NC(=O)[C@H](CCCCN)NC(=O)[C@H](Cc2c[nH]c3ccccc23)NC(=O)[C@H](Cc2ccccc2)NC1=O (H-ADCFWKYCA-OH; disulfide 3-8)
10 | 0.16 | CC(C)[C@H](NC(=O)[C@@H]1CSSC[C@H](NC(=O)[C@H](CC(=O)O)NC(=O)[C@H](C)N)C(=O)N[C@@H](Cc2ccccc2)C(=O)N[C@@H](Cc2c[nH]c3ccccc23)C(=O)N[C@@H](CCCCN)C(=O)N[C@@H](Cc2ccc(O)cc2)C(=O)N1)C(=O)O (H-ADCFWKYCV-OH; disulfide 3-8)
11 | 0.11 | CC(C)[C@H](NC(=O)[C@@H]1CSSC[C@H](NC(=O)[C@H](CC(=O)O)NC(=O)[C@H](C)NC(=O)[C@@H](N)[C@@H](C)O)C(=O)N[C@@H](Cc2ccccc2)C(=O)N[C@@H](Cc2c[nH]c3ccccc23)C(=O)N[C@@H](CCCCN)C(=O)N[C@@H](Cc2ccc(O)cc2)C(=O)N1)C(=O)O (H-TADCFWKYCV-OH; disulfide 4-9)
